Measured values: ChEMBL document CHEMBL1201862, “PubChem BioAssay data set” (2004)
Activity calls are given as the source filed them.

Columns and labels:
X-box-binding protein 1 = X-box-binding protein 1 (Homo sapiens, UniProt P17861); format: functional, Cricetulus griseus;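 further: confirmatory dose-response counter-screen serving a CHOP assay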
[1] = target: Glutathione-S-transferase (Schistosoma japonicum, UniProt Q26513); assay: biotin-GST/anti-GST TR-FRET signal inhibitors, dose response, artefact control for Vif-APOBEC3G degradation inhibitor project, biochemical (AID 1117362); format: functional
Sequence of Glutathione-S-transferase (Q26513 whole entry): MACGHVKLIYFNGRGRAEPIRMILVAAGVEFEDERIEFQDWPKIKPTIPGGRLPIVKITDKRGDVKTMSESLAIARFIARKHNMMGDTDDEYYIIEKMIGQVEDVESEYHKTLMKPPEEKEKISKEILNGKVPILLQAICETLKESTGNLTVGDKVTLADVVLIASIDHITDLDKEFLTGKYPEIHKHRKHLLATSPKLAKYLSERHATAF

[2] = THP-1 cell cytotoxicity, dose response, cytotoxicity control for Vif-APOBEC3G degradation inhibitor project, THP-1 cells (AID 1117359); format: functional; details: Human immunodeficiency virus 1, THP-1
Hexokinase HKDC1 = Hexokinase HKDC1 (Homo sapiens, UniProt Q2TB90); assay: HKDC1 hexokinase inhibitors, dose response, biochemical, W721R variant (AID 504729); format: functional
Sequence of Hexokinase HKDC1 (Q2TB90 whole entry): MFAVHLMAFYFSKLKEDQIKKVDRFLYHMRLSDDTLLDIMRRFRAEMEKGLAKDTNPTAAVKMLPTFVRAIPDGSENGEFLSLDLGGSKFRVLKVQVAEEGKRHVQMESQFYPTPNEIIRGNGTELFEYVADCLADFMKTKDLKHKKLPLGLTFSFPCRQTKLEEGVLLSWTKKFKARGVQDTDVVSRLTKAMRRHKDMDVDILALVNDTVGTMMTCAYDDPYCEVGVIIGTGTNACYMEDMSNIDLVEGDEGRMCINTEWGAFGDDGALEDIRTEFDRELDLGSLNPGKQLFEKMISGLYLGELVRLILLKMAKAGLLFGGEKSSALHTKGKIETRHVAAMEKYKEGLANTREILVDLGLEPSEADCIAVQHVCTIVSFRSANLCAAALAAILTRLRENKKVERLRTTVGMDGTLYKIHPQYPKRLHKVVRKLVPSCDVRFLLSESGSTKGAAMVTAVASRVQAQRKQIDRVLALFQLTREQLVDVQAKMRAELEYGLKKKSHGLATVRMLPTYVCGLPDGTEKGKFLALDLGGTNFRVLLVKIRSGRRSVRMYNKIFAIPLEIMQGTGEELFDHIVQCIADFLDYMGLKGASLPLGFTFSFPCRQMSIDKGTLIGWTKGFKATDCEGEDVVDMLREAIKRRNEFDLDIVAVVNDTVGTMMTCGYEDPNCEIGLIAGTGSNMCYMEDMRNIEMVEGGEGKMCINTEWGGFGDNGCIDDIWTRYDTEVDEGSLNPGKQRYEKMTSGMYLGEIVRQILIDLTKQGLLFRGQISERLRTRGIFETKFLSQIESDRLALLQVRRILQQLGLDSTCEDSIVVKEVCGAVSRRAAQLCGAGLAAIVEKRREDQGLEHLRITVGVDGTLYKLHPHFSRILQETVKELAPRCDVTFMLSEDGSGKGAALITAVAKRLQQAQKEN

Beta-galactosidase = Beta-galactosidase (Escherichia coli, UniProt Q8VNN2); assay: beta-galactosidase enzyme inhibitors and activators, dose response, artefact control for CCR6 antagonist project, biochemical, E. coli enzyme, set 3 (AID 504712); format: functional
Sequence of Beta-galactosidase (Q8VNN2 whole entry): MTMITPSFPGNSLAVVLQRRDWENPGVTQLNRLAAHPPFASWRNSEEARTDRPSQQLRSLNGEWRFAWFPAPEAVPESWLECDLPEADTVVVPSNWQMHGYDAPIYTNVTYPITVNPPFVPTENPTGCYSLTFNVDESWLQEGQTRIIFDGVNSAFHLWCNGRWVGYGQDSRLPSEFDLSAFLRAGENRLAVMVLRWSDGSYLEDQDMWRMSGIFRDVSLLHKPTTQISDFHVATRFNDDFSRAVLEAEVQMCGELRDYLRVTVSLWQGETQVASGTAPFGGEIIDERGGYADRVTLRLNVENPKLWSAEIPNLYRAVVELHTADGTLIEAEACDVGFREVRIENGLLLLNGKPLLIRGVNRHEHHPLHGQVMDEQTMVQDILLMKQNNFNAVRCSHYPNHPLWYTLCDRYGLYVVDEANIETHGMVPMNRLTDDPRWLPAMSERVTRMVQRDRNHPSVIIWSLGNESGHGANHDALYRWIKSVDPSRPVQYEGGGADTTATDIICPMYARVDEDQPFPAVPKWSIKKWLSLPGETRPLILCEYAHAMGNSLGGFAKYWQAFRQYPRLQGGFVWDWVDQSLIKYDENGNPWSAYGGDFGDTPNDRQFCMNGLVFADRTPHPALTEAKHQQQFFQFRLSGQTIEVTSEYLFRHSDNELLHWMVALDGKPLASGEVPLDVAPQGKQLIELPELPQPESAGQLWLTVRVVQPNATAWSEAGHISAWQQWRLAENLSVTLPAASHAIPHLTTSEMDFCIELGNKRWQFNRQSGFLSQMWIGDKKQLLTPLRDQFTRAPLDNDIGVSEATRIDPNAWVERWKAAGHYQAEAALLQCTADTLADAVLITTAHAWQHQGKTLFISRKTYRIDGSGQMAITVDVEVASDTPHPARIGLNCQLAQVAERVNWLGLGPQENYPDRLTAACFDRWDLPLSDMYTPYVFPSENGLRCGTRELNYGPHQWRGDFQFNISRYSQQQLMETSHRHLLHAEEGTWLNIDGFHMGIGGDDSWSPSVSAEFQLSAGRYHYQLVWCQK

[3] = target: C-C chemokine receptor type 6 (Homo sapiens, UniProt P51684); assay: CCR6 receptor antagonists, dose response, cell-based, luminescent beta-arrestin readout (AID 504728); format: functional
Sequence of C-C chemokine receptor type 6 (P51684 whole entry): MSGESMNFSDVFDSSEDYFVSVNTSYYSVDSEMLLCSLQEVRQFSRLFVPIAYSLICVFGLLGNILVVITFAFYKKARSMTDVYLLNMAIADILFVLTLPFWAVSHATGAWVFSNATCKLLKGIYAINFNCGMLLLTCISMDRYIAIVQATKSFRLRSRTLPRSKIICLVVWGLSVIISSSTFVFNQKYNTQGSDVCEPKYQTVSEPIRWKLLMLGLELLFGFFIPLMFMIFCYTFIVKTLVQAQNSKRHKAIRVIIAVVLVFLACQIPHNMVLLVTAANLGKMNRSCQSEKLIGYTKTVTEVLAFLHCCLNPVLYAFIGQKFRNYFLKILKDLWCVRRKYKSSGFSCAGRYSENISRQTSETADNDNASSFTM

[4] = target: Dual specificity protein phosphatase 3 (Homo sapiens, UniProt P51452); assay: VHR1 inhibitor Ki determination, SAR follow-up, biochemical, colorimetric (AID 2004)
Sequence of Dual specificity protein phosphatase 3 (P51452 whole entry): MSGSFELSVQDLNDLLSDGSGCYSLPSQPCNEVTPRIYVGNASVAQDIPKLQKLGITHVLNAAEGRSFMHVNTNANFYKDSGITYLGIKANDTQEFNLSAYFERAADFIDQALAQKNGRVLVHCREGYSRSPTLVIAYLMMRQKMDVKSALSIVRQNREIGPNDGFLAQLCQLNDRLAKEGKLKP

Sequence of X-box-binding protein 1 (P17861 whole entry): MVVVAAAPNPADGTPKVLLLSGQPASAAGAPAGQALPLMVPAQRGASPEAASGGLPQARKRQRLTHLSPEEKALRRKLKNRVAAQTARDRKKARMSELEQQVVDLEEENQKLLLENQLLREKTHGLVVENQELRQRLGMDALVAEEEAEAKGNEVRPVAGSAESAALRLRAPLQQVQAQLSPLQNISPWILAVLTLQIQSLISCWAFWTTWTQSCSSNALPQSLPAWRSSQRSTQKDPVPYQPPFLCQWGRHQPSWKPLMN

## CC(C)Cc1ccc(C(C)C(=O)Nc2nccs2)cc1 (configuration not stated)
X-box-binding protein 1
  Absolute IC50 (XBP1): 10 µM

## O=C1C(CO)=C(CO)C(=O)c2c(O)ccc(O)c21
[1]
  IC50: > 100 µM (active)
[2]
  CC50: 25.3 µM (active)
Hexokinase HKDC1
  IC50: 15.2 µM (active)

## CCN1CCC(O)(/C=C/c2ccc(C)cc2)C(C(=O)/C=C/c2ccc(C)cc2)C1 (configuration not stated)
Beta-galactosidase
  IC50: > 66.6 µM (inactive)
[3]
  IC50: 22.8 µM (inactive)

## O=C1/C(=C\c2ccc(-c3cccc(Cl)c3)o2)SC(=S)N1CCS(=O)(=O)O
[4]
  Ki: 3.13 µM (active)
